Source: US11981658B2, “Substituted aminopyridine compounds as EGFR inhibitors” (YUHAN CORPORATION, priority 2021, dated 2024)
Like-named read-outs stand apart in the source and are kept apart here.

Key:
[1] = biological target: EGFR Del19/C797S (Homo sapiens, UniProt P00533, C797S/DEL746-750); assay: Biochemical EGFR kinase inhibition assay (Lance Ultra TR-FRET), double mutant del19/C797S
Method in brief: (§1)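 Kinase activity is measured by TR-FRET phosphopeptide detection. Compounds span 0.003 μM to 10 μM; the 1 h reaction at room temperature is quenched with EDTA, then labelled antibody (2 nM) is incubated 60 min before reading.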

[2] = biological target: EGFR L858R/C797S (Homo sapiens, UniProt P00533, C797S/L858R); assay: Biochemical EGFR kinase inhibition assay (Lance Ultra TR-FRET), double mutant L858R/C797S
Method in brief: as §1

[3] = biological target: EGFR wildtype (WT) (Homo sapiens, UniProt P00533); assay: Biochemical EGFR kinase inhibition assay (Lance Ultra TR-FRET), wildtype
Method in brief: as §1

[4] = biological target: EGFR Del19/T790M/C797S (Homo sapiens, UniProt P00533, C797S/DEL746-750/T790M); assay: Biochemical EGFR kinase inhibition assay (Lance Ultra TR-FRET), triple mutant del19/T790M/C797S
Method in brief: as §1

[5] = biological target: EGFR L858R/T790M/C797S (Homo sapiens, UniProt P00533, C797S/L858R/T790M); assay: Biochemical EGFR kinase inhibition assay (Lance Ultra TR-FRET), triple mutant L858R/T790M/C797S
Method in brief: as §1

[6] = ATP at Km, read-out: IC50 Del19/C797S (nM), Km ATP
[7] = IC50 Del19/C797S (nM), 100 μM ATP
[8] = ATP at Km, read-out: IC50 L858R/C797S (nM), Km ATP
[9] = IC50 L858R/C797S (nM), 100 μM ATP
[10] = ATP at Km, read-out: IC50 WT (nM), Km ATP
[11] = ATP at Km, read-out: IC50 Del19/T790M/C797S (nM), Km ATP
[12] = IC50 Del19/T790M/C797S (nM), 100 μM ATP
[13] = ATP at Km, read-out: IC50 L858R/T790M/C797S (nM), Km ATP
[14] = IC50 L858R/T790M/C797S (nM), 100 μM ATP

EGFR Del19/T790M/C797S, sequence (P00533 with tags, fused parts or gaps DEL746-750/T790M/C797S): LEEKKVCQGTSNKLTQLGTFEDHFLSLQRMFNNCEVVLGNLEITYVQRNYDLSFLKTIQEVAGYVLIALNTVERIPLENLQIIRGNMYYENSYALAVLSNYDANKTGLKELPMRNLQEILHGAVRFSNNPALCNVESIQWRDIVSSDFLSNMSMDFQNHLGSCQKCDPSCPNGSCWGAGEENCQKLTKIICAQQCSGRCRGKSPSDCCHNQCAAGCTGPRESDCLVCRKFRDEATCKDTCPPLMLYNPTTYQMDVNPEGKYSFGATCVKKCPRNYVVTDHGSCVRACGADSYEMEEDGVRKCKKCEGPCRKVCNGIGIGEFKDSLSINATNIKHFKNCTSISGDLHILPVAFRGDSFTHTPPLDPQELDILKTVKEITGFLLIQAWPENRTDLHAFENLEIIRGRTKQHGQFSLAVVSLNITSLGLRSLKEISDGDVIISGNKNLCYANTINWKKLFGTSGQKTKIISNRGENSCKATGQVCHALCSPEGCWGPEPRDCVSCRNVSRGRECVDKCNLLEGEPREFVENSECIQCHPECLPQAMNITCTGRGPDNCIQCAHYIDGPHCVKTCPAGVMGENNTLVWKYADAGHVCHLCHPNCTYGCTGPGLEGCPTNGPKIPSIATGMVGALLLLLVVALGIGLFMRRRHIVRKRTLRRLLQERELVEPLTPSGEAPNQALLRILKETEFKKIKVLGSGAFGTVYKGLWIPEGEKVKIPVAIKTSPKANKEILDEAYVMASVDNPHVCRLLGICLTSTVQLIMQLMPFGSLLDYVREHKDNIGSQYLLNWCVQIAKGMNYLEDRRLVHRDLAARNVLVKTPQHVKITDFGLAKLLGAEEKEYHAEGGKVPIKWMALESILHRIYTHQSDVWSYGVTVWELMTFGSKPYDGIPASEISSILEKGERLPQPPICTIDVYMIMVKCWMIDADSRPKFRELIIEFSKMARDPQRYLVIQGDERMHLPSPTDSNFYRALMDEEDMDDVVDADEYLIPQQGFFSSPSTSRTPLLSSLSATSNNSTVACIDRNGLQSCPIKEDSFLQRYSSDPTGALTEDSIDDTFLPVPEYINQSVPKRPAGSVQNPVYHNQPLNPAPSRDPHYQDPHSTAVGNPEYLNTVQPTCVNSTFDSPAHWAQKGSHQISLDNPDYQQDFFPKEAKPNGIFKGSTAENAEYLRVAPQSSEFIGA
EGFR Del19/C797S, sequence (P00533 with tags, fused parts or gaps DEL746-750/C797S): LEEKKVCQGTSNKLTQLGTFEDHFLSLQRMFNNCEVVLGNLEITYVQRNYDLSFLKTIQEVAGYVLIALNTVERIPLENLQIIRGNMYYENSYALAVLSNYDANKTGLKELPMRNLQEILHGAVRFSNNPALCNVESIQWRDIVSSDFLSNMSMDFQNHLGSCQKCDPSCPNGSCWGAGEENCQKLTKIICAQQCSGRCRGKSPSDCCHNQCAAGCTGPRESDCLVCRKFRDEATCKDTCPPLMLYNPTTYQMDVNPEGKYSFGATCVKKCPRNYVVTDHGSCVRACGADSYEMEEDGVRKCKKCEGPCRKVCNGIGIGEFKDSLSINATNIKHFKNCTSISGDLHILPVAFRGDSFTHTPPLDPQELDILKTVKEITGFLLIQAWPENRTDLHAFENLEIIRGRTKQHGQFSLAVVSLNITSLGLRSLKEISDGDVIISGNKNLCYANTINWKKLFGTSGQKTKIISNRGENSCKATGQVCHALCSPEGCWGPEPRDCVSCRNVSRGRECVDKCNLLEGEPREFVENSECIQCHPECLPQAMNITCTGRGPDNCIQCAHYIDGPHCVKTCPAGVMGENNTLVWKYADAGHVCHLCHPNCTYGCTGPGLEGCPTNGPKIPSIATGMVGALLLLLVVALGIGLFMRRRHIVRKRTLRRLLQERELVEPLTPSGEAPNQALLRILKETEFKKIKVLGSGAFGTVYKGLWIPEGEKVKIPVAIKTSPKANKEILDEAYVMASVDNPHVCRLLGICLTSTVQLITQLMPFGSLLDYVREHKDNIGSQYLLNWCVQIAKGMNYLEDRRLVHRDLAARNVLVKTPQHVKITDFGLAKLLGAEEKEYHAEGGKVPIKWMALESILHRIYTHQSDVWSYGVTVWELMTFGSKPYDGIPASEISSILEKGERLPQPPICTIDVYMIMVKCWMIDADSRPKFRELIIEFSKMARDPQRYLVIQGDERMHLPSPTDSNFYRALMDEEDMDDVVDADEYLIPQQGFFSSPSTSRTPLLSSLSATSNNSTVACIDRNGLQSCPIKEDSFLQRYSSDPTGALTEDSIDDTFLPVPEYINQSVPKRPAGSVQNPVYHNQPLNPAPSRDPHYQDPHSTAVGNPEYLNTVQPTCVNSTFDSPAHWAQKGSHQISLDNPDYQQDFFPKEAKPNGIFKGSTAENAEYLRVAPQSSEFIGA
EGFR wildtype (WT), sequence (P00533 25-1210): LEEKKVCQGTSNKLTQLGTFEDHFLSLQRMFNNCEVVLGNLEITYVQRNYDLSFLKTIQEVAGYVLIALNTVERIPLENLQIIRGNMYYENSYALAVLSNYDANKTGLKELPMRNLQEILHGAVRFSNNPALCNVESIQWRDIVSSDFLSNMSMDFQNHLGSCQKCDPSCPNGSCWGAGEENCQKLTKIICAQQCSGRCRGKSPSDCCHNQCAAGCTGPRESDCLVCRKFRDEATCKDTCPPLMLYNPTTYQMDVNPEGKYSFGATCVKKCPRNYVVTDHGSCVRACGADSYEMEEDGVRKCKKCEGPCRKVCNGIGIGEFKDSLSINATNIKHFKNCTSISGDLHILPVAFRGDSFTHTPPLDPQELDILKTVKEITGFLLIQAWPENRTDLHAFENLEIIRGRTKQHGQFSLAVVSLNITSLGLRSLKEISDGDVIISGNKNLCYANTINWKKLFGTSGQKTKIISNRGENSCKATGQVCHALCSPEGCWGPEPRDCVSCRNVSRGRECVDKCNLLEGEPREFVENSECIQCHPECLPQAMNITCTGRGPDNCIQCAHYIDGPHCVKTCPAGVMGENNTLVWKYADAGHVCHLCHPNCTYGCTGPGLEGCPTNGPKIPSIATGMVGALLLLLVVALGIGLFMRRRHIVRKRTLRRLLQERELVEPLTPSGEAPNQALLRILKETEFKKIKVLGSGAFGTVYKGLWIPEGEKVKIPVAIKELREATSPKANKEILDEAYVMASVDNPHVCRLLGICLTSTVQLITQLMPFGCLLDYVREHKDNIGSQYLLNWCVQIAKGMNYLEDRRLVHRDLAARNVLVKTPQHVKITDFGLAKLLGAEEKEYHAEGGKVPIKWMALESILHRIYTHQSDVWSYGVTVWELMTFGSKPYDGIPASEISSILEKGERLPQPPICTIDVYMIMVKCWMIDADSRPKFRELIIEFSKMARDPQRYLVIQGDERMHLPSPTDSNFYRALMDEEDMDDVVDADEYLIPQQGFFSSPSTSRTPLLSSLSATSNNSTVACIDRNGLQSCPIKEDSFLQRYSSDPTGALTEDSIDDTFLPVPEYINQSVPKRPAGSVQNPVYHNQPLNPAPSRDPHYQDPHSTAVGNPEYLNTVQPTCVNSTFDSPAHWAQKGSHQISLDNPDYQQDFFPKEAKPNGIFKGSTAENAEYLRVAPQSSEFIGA
EGFR L858R/C797S, sequence (P00533 25-1210 C797S/L858R): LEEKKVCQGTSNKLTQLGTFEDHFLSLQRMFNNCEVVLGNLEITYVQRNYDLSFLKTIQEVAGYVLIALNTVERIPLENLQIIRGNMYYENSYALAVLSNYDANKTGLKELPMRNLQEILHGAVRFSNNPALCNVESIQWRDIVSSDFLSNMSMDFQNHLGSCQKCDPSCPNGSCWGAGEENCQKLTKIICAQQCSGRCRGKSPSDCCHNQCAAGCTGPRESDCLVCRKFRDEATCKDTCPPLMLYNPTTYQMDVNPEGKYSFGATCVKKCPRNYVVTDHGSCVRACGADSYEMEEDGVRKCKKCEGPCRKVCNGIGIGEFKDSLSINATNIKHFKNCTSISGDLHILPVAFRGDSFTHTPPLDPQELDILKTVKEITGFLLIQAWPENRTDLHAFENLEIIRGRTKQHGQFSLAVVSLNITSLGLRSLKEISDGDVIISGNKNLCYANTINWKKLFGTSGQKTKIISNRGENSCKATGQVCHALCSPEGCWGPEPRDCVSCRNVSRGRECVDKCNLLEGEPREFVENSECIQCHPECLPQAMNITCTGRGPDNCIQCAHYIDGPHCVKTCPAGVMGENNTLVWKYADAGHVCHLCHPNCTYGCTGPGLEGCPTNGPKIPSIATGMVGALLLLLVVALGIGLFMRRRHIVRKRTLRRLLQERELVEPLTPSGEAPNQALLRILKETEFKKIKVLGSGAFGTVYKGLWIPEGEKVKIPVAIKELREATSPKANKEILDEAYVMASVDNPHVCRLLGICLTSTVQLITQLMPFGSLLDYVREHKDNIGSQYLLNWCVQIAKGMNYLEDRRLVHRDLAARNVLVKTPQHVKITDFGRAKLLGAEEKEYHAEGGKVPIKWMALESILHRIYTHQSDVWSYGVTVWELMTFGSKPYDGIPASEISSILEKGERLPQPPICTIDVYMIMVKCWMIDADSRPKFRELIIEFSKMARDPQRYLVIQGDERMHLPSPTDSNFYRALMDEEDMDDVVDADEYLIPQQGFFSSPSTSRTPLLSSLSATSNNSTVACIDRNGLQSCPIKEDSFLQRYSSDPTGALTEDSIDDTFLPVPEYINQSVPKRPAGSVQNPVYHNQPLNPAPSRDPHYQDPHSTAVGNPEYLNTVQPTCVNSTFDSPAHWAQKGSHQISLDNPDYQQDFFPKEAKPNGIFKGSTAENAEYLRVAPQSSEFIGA

Compound | IC50 [1, 6] | IC50 [1, 7] | IC50 [2, 8] | IC50 [2, 9] | IC50 [3, 10] | IC50 ([3]; IC50 WT (nM), 100 μM ATP) | IC50 [4, 11] | IC50 [4, 12] | IC50 [5, 13] | IC50 [5, 14]
CC1(CO)CCN(c2cc(Nc3ccnc(-c4cnn(S(=O)(=O)C5CC5)c4)n3)ncc2C#Cc2cccc(C(=O)N3CCOCC3)n2)CC1 [Example 265, (6-((6-((2-(1-(Cyclopropylsulfonyl)-1H-pyrazol-4-yl)pyrimidin-4-yl)amino)-4-(4-(hydroxymethyl)-4-methylpiperidin-1-yl)pyridin-3-yl)ethynyl)pyridin-2-yl)(morpholino)methanone] | 0.8 nM | 1.1 nM | 0.9 nM | 9.1 nM | 7.6 nM | 6520 nM | 0.8 nM | 0.9 nM | 0.3 nM | 0.8 nM
CC1(CO)CCN(c2cc(Nc3ccnc(-c4cnn(S(=O)(=O)C5CC5)c4)n3)ncc2C#CC2CC(C(C)(C)O)C2)CC1 (stereo not shown) [Example 266, 2-(3-((6-((2-(1-(Cyclopropylsulfonyl)-1H-pyrazol-4-yl)pyrimidin-4-yl)amino)-4-(4-(hydroxymethyl)-4-methylpiperidin-1-yl)pyridin-3-yl)ethynyl)cyclobutyl)propan-2-ol] | 1.1 nM | 2.1 nM | 0.9 nM | 5.4 nM | 7.2 nM | 1230 nM | 1 nM | 0.8 nM | 0.4 nM | 0.4 nM
CC1(CO)CCN(c2cc(Nc3ccnc(-c4cnn(CC(F)F)c4)n3)ncc2C#Cc2cnn(C(F)(F)F)c2)CC1 [Example 267, (1-(2-((2-(1-(2,2-Difluoroethyl)-1H-pyrazol-4-yl)pyrimidin-4-yl)amino)-5-((1-(trifluoromethyl)-1H-pyrazol-4-yl)ethynyl)pyridin-4-yl)-4-methylpiperidin-4-yl)methanol] | 24.2 nM | 12.4 nM | 4.1 nM | 130 nM | 252 nM | > 10000 nM | 1.6 nM | 1.9 nM | 0.8 nM | 3.1 nM
CC1(CO)CCN(c2cc(Nc3ccnc(-c4cnn(S(C)(=O)=O)c4)n3)ncc2C#Cc2cnn(C(F)(F)F)c2)CC1 [Example 268, (4-Methyl-1-(2-((2-(1-(methylsulfonyl)-1H-pyrazol-4-yl)pyrimidin-4-yl)amino)-5-((1-(trifluoromethyl)-1H-pyrazol-4-yl)ethynyl)pyridin-4-yl)piperidin-4-yl)methanol] | 26.6 nM | 59.6 nM | 41.8 nM | 116 nM | 105 nM | > 10000 nM | 2.4 nM | 6.2 nM | 1 nM | 2.9 nM
CC1(CO)CCN(c2cc(Nc3ccnc(-c4ccc(F)nc4)n3)ncc2C#Cc2cnn(C(F)(F)F)c2)CC1 [Example 269, (1-(2-((2-(6-Fluoropyridin-3-yl)pyrimidin-4-yl)amino)-5-((1-(trifluoromethyl)-1H-pyrazol-4-yl)ethynyl)pyridin-4-yl)-4-methylpiperidin-4-yl)methanol] | – | 1950 nM | – | 1350 nM | > 10000 nM | > 10000 nM | – | 129 nM | – | 160 nM
Cn1cc(C#Cc2cnc(Nc3ccnc(Nc4ccccc4S(C)(=O)=O)n3)cc2N2CCC(C)(CO)CC2)cn1 [Example 270, (4-Methyl-1-(5-((1-methyl-1H-pyrazol-4-yl)ethynyl)-2-((2-((2-(methylsulfonyl)phenyl)amino)pyrimidin-4-yl)amino)pyridin-4-yl)piperidin-4-yl)methanol] | 27.9 nM | 28 nM | 72.8 nM | 2800 nM | 111 nM | > 10000 nM | 0.7 nM | 1.2 nM | 1.6 nM | 4.8 nM
CC1(CO)CCN(c2cc(Nc3ccnc(Nc4ccccc4S(C)(=O)=O)n3)ncc2C#Cc2cnn(C(F)F)c2)CC1 [Example 271, (1-(5-((1-(Difluoromethyl)-1H-pyrazol-4-yl)ethynyl)-2-((2-((2-(methylsulfonyl)phenyl)amino)pyrimidin-4-yl)amino)pyridin-4-yl)-4-methylpiperidin-4-yl)methanol] | 68.5 nM | 111 nM | 439 nM | > 10000 nM | 411 nM | > 10000 nM | 1.8 nM | 3 nM | 6.7 nM | 9.2 nM
Cc1nn(S(=O)(=O)N(C)C)cc1-c1nccc(Nc2cc(N3CCC(C)(CO)CC3)c(C#Cc3cnn(C(F)(F)F)c3)cn2)n1 [Example 272, 4-(4-((4-(4-(Hydroxymethyl)-4-methylpiperidin-1-yl)-5-((1-(trifluoromethyl)-1H-pyrazol-4-yl)ethynyl)pyridin-2-yl)amino)pyrimidin-2-yl)-N, N,3-trimethyl-1H-pyrazole-1-sulfonamide] | 51.2 nM | 81.9 nM | 18.9 nM | 2120 nM | 108 nM | > 10000 nM | 4 nM | 7.1 nM | 2.2 nM | 3.1 nM
CN(C)S(=O)(=O)n1cc(-c2nccc(Nc3cc(N4CCC(C)(CO)CC4)c(C#Cc4cnn(C(F)(F)F)c4)cn3)n2)cn1 [Example 273, 4-(4-((4-(4-(Hydroxymethyl)-4-methylpiperidin-1-yl)-5-((1-(trifluoromethyl)-1H-pyrazol-4-yl)ethynyl)pyridin-2-yl)amino)pyrimidin-2-yl)-N, N-dimethyl-1H-pyrazole-1-sulfonamide] | 35.8 nM | 97.4 nM | 16.6 nM | 198 nM | 46.1 nM | > 10000 nM | 5.6 nM | 2.9 nM | 0.3 nM | 1.5 nM
CC1(CO)CCN(c2cc(Nc3ccnc(-c4cnn(S(=O)(=O)C5CC5)c4)n3)ncc2C#CCCO)CC1 [Example 274, 4-(6-((2-(1-(Cyclopropylsulfonyl)-1H-pyrazol-4-yl)pyrimidin-4-yl)amino)-4-(4-(hydroxymethyl)-4-methylpiperidin-1-yl)pyridin-3-yl)but-3-yn-1-ol] | 0.4 nM | 0.6 nM | 1 nM | 10.8 nM | 4.4 nM | 1890 nM | 0.1 nM | 0.2 nM | 0.1 nM | 0.2 nM
CC1(CO)CCN(c2cc(Nc3ccnc(-c4cnn(S(=O)(=O)C5CC5)c4)n3)ncc2C#CCC(F)(F)F)CC1 [Example 275, (1-(2-((2-(1-(Cyclopropylsulfonyl)-1H-pyrazol-4-yl)pyrimidin-4-yl)amino)-5-(4,4,4-trifluorobut-1-yn-1-yl)pyridin-4-yl)-4-methylpiperidin-4-yl)methanol] | 4.5 nM | 10.4 nM | 12.3 nM | 118 nM | 62.3 nM | > 10000 nM | 1 nM | 1.7 nM | 0.8 nM | 3.6 nM
CC1(CO)CCN(c2cc(Nc3ccnc(-c4cnn(S(=O)(=O)C5CC5)c4)n3)ncc2C#CCCF)CC1 [Example 276, (1-(2-((2-(1-(Cyclopropylsulfonyl)-1H-pyrazol-4-yl)pyrimidin-4-yl)amino)-5-(4-fluorobut-1-yn-1-yl)pyridin-4-yl)-4-methylpiperidin-4-yl)methanol] | 0.8 nM | 1.3 nM | 1.5 nM | 16.5 nM | 7.5 nM | 5290 nM | 0.3 nM | 0.7 nM | 0.1 nM | 0.5 nM
C=CC#Cc1cnc(Nc2ccnc(-c3cnn(S(=O)(=O)C4CC4)c3)n2)cc1N1CCC(C)(CO)CC1 [Example 277, (1-(5-(But-3-en-1-yn-1-yl)-2-((2-(1-(cyclopropylsulfonyl)-1H-pyrazol-4-yl)pyrimidin-4-yl)amino)pyridin-4-yl)-4-methylpiperidin-4-yl)methanol] | 1.4 nM | 3.3 nM | 2.5 nM | 33.7 nM | 11.4 nM | > 10000 nM | 0.6 nM | 0.8 nM | 0.3 nM | 1.8 nM
CN(C)Cc1ccc(C#Cc2cnc(Nc3ccnc(-c4cnn(S(=O)(=O)C5CC5)c4)n3)cc2N2CCC(C)(CO)CC2)cn1 [Example 278, (1-(2-((2-(1-(Cyclopropylsulfonyl)-1H-pyrazol-4-yl)pyrimidin-4-yl)amino)-5-((6-((dimethylamino)methyl)pyridin-3-yl)ethynyl)pyridin-4-yl)-4-methylpiperidin-4-yl)methanol] | 0.2 nM | 0.6 nM | 0.5 nM | 0.5 nM | 0.7 nM | 108 nM | 0.3 nM | 0.6 nM | 0.1 nM | 0.3 nM
